Marks after values point to notes of the source that are not given here.

What all share (type): in vivo, rat
One assay concerns COX-2. The assay is described as follows: DCA-induced IBS in rats: colonic COX-2 expression by qPCR. As to conditions: colonic tissue, two weeks oral daily, mean ± SEM. As to the method: (§1) Male Sprague Dawley rats (240-320 g) were administered DCA once daily on 3 consecutive days, and then divided into the different experimental groups (n=8): three received orally and daily CPM (40 and 100 mg/kg) or Gabapentin (70 mg/kg); a non IBS and an untreated control IBS group were also included. One and two weeks after, abdominal withdrawal reflex to colorectal distension (CRD) was semi quantitatively scored. Also the referred pain was evaluated with Von Frey filaments. After two weeks of treatment, all rats were sacrificed and the expression of different markers IL-1β and COX-2 evaluated in the colonic tissue by qPCR.
(Quantitative PCR measures a nucleic acid by following its amplification.)

Assay [1] has as its system experimental model of irritable bowel syndrome (IBS) in rats induced by deoxycholic acid (DCA). In words: DCA-induced IBS in rats: abdominal withdrawal reflex to colorectal distension (CRD). As to conditions: oral daily, mean ± SEM. How it is done:
as §1

Assay [2] shares this test system. The assay is described as follows: DCA-induced IBS in rats: referred pain with Von Frey filaments (AUC). As to conditions: for referred pain (in words): Von Frey filaments; for AUC: oral daily, mean ± SEM. As to the method:
as §1

The next assay deals with IL-1β. The assay is described as follows: DCA-induced IBS in rats: colonic IL-1β expression by qPCR. As to conditions: colonic tissue, two weeks oral daily, mean ± SEM. How it is done: as §1

With `NCC1(CC(=O)O)CCCCC1` [Gabapentin], the “qPCR COX-2” value with COX-2 (30 mg/kg (table)) is recorded as 1.74 ± 0.36^c fold increase. The CRD in assay [1] (30 mg/kg (table)) is listed as 0.25 ± 0.1^a units. The “referred pain (in words)” value in assay [2] is “attenuated”. Besides, the AUC in assay [2] (30 mg/kg (table)) was 27.30 ± 6.83^a arbitrary units. For the same compound, in the assay with IL-1β (30 mg/kg (table)), the “qPCR IL-1β” value is on record as 8.28 ± 1.38^c fold increase.

In the case of calcium pyruvate monohydrate [CPM], the “qPCR COX-2” value in the assay on COX-2 (40 mg/kg) is reported as 2.47 ± 0.58^c fold increase; in the assay with COX-2 (100 mg/kg), 1.60 ± 0.36^c fold increase. Moreover, the CRD in assay [1] (40 mg/kg) is on record as 1.30 ± 0.14^c units; in assay [1] (100 mg/kg), 0.70 ± 0.14^a,c units. For the same compound, in assay [2], the “referred pain (in words)” value is on record as “attenuated”. For the same compound, the figures for the AUC in assay [2] (40 mg/kg) and in assay [2] (100 mg/kg) were 104.65 ± 20.48^a arbitrary units and 63.70 ± 22.75^a arbitrary units, respectively. The “qPCR IL-1β” value in the assay with IL-1β (40 mg/kg) is given as 7.82 ± 2.07^c fold increase; in the assay on IL-1β (100 mg/kg), 5.52 ± 1.15^c fold increase.

Source of the values: patent publication US20170087106A1, “Method for supporting gut health” (priority 2015, published 2017).
